The test system of one experiment is Pyricularia oryzae. The experiment is classed as in vivo. The settings on record: 200 ppm spray on rice (Koshihikari, 3 leaf stage), inoculated next day; lesion numbers on third leaves after 7 days in green house, graded by Table 5.
The subject of experiment [1] is Colletotrichum lagenarium. The settings on record: 200 ppm spray on cucumber (3 leaf stage), inoculated next day; lesion numbers on first and second leaves after 7 days in green house, graded by Table 5.

Consider `CCC(CC)c1cc(CNC(=O)c2ccc(OC)cc2)on1` [III-230, N-{[3-(1-ethylpropyl)-5-isoxazolyl]methyl}-4-methoxybenzamide], for which the “Evaluation (effect for rice blast)” value with Pyricularia oryzae was 5 (0). In addition, the “Evaluation (effect for cucumber anthracnose)” value in experiment [1] was 5 (0).
Take `COc1ccc(C(=O)NCc2cc(-c3ccccc3Cl)no2)cc1` [III-231, N-{[3-(2-chlorophenyl)-5-isoxazolyl]methyl}-4-methoxybenzamide]: the “Evaluation (effect for rice blast)” value in the experiment on Pyricularia oryzae is 5 (0). Besides, in experiment [1], the “Evaluation (effect for cucumber anthracnose)” value is given as 5 (0).
Turning to `COc1ccc(C(=O)NCc2cc(-c3nc(-c4ccccc4)no3)no2)cc1` [III-232, N-{[3-(3-phenyl-1,2,4-oxadiazol-5-yl)-5-isoxazolyl]methyl]-4-methoxybenzamide], the “Evaluation (effect for rice blast)” value with Pyricularia oryzae was 3 (6˜10). In experiment [1], the “Evaluation (effect for cucumber anthracnose)” value is reported as 2 (11˜20).
As for `CCCCc1cc(CNC(=O)c2ccc(OC)cc2)on1` [III-235, N-[(3-butyl-5-isoxazolyl)methyl]-4-methoxybenzamide], the “Evaluation (effect for rice blast)” value in the experiment with Pyricularia oryzae is 4 (1˜5). Also, the “Evaluation (effect for cucumber anthracnose)” value in experiment [1] is 4 (1˜5).
Turning to `CCC(C)c1cc(CNC(=O)c2ccc(OC)cc2)on1` (stereo not drawn) [III-236, N-[(3-sec-butyl-5-isoxazolyl)methyl]-4-methoxybenzamide], the “Evaluation (effect for rice blast)” value with Pyricularia oryzae was 4 (1˜5). Besides, the “Evaluation (effect for cucumber anthracnose)” value in experiment [1] is listed as 4 (1˜5).
Turning to `COc1ccc(C(=O)NCc2cc(C(C)(C)C)no2)cc1` [III-237, N-[(3-tert-butyl-5-isoxazolyl)methyl]-4-methoxybenzamide], the “Evaluation (effect for rice blast)” value in the experiment with Pyricularia oryzae was 3 (6˜10). In addition, the “Evaluation (effect for cucumber anthracnose)” value in experiment [1] is recorded as 3 (6˜10).
Take `COc1ccc(C(=O)NCc2cc(C3CCCCC3)no2)cc1` [III-238, N-[(3-cyclohexyl-5-isoxazolyl)methyl]-4-methoxybenzamide]: the “Evaluation (effect for rice blast)” value in the experiment on Pyricularia oryzae is given as 4 (1˜5). For the same compound, in experiment [1], the “Evaluation (effect for cucumber anthracnose)” value was 5 (0).
For `Cc1ccc(-c2cc(CNC(=O)c3cc(Cl)nc(Cl)c3)on2)cc1` [III-240, N-{[3-(4-tolyl)-5-isoxazolyl]methyl}-2,6-dichloropyridine-4-carboxamide] the same measures were 2 (11˜20) and 2 (11˜20).
On the same counts, the results for `CC(C)c1cc(CNC(=O)c2cc(Cl)nc(Cl)c2)on1` [III-243, N-[(3-isopropyl-5-isoxazolyl)methyl]-2,6-dichloropyridine-4-carboxamide] are 2 (11˜20) and 1 (21˜41).
On to `CCCc1cc(CNC(=O)c2ccc(OC)cc2)on1` [III-245, N-[(3-propyl-5-isoxazolyl)methyl]-4-methoxybenzamide], for which the “Evaluation (effect for rice blast)” value in the experiment on Pyricularia oryzae is given as 5 (0). Besides, the “Evaluation (effect for cucumber anthracnose)” value in experiment [1] was 5 (0).
Consider `CCCC(C)c1cc(CNC(=O)c2ccc(OC)cc2)on1` (stereo not drawn) [III-246, N-[(3-sec-pentyl-5-isoxazolyl)methyl]-4-methoxybenzamide], for which the “Evaluation (effect for rice blast)” value with Pyricularia oryzae was 3 (6˜10). In experiment [1], the “Evaluation (effect for cucumber anthracnose)” value is recorded as 3 (6˜10).
In the case of `COc1ccc(C(=O)NCc2cc(-c3ccc(C)o3)no2)cc1` [III-247, N-{[3-(2-methylfuran-5-yl)-5-isoxazolyl]methyl}-4-methoxybenzamide], the “Evaluation (effect for rice blast)” value with Pyricularia oryzae is recorded as 5 (0). The “Evaluation (effect for cucumber anthracnose)” value in experiment [1] was 5 (0).
As to `CCCCCC#Cc1cc(CNC(=O)c2ccc(OC)cc2)on1` [III-248, N-{[3-(1-heptynyl)-5-isoxazolyl]methyl}-4-methoxybenzamide], in the experiment with Pyricularia oryzae, the “Evaluation (effect for rice blast)” value is given as 3 (6˜10). The “Evaluation (effect for cucumber anthracnose)” value in experiment [1] is 2 (11˜20).
Regarding `COc1ccc(C(=O)NCc2cc(C(OC)OC)no2)cc1` [III-249, N-[(3-dimethoxymethyl-5-isoxazolyl)methyl]-4-methoxybenzamide], the “Evaluation (effect for rice blast)” value with Pyricularia oryzae is listed as 2 (11˜20). For the same compound, the “Evaluation (effect for cucumber anthracnose)” value in experiment [1] is given as 2 (11˜20).
`COc1ccc(C(=O)NCc2cc(ON=C(C)C)no2)cc1` [III-250, N-[(3-isopropyliminoxy-5-isoxazolyl)methyl]-4-methoxybenzamide]: the “Evaluation (effect for rice blast)” value with Pyricularia oryzae was 2 (11˜20). Besides, the “Evaluation (effect for cucumber anthracnose)” value in experiment [1] is 2 (11˜20).
As to `Cc1ccc(C(=O)NCc2cc(CC(C)C)no2)cc1` [III-251, N-[(3-isobutyl-5-isoxazolyl)methyl]-4-methylbenzamide], in the experiment with Pyricularia oryzae, the “Evaluation (effect for rice blast)” value is 5 (0). The “Evaluation (effect for cucumber anthracnose)” value in experiment [1] is given as 5 (0).
In the case of `CC(C)Cc1cc(CNC(=O)c2ccc(Cl)cc2)on1` [III-252, N-[(3-isobutyl-5-isoxazolyl)methyl]-4-chlorobenzamide], the “Evaluation (effect for rice blast)” value in the experiment on Pyricularia oryzae is listed as 5 (0). Also, the “Evaluation (effect for cucumber anthracnose)” value in experiment [1] is 5 (0).
For `CC(C)Cc1cc(CNC(=O)c2ccc(Cl)cc2Cl)on1` [III-253, N-[(3-isobutyl-5-isoxazolyl)methyl]-2,4-dichlorobenzamide], the “Evaluation (effect for rice blast)” value in the experiment on Pyricularia oryzae is recorded as 5 (0). Further, the “Evaluation (effect for cucumber anthracnose)” value in experiment [1] is 5 (0).
Consider `CC(C)Cc1cc(CNC(=O)c2ccc(Cl)c(Cl)c2)on1` [III-255, N-[(3-isobutyl-5-isoxazolyl)methyl]-3,4-dichlorobenzamide], for which the “Evaluation (effect for rice blast)” value in the experiment with Pyricularia oryzae was 4 (1˜5). In addition, the “Evaluation (effect for cucumber anthracnose)” value in experiment [1] is recorded as 4 (1˜5).
Take `CC(C)Cc1cc(CNC(=O)c2ccc(Br)cc2)on1` [III-256, N-[(3-isobutyl-5-isoxazolyl)methyl]-4-bromobenzamide]: in the experiment with Pyricularia oryzae, the “Evaluation (effect for rice blast)” value was 5 (0). The “Evaluation (effect for cucumber anthracnose)” value in experiment [1] is given as 5 (0).
In the case of `CC(C)Cc1cc(CNC(=O)c2ccc(C(F)(F)F)cc2)on1` [III-257, N-[(3-isobutyl-5-isoxazolyl)methyl]-4-trifluoromethylbenzamide], the “Evaluation (effect for rice blast)” value in the experiment with Pyricularia oryzae is listed as 3 (6˜10). Besides, the “Evaluation (effect for cucumber anthracnose)” value in experiment [1] is recorded as 4 (1˜5).
On the same counts, the results for `CCc1ccc(C(=O)NCc2cc(CC(C)C)no2)cc1` [III-258, N-[(3-isobutyl-5-isoxazolyl)methyl]-4-ethylbenzamide] are 5 (0) and 4 (1˜5).
On the same counts, the results for `CC(C)Cc1cc(CNC(=O)c2ccc3ccccc3c2)on1` [III-259, N-[(3-isobutyl-5-isoxazolyl)methyl]-2-naphthalenecarboxamide] are 5 (0) and 4 (1˜5).
For `CC(C)Cc1cc(CNC(=O)c2cccc3ccccc23)on1` [III-262, N-[(3-isobutyl-5-isoxazolyl)methyl]-1-naphthalenecarboxamide] the same measures were 5 (0) and 5 (0).
Turning to `CCCc1cc(CNC(=O)c2ccc(Cl)cc2)on1` [III-263, N-[(3-propyl-5-isoxazolyl)methyl]-4-chlorobenzamide], the “Evaluation (effect for rice blast)” value in the experiment with Pyricularia oryzae is 5 (0). In experiment [1], the “Evaluation (effect for cucumber anthracnose)” value is 5 (0).
Consider `CCCc1cc(CNC(=O)c2ccc(Br)cc2)on1` [III-264, N-[(3-propyl-5-isoxazolyl)methyl]-4-bromobenzamide], for which the “Evaluation (effect for rice blast)” value in the experiment on Pyricularia oryzae was 5 (0). Also, in experiment [1], the “Evaluation (effect for cucumber anthracnose)” value is 5 (0).
As to `CCCc1cc(CNC(=O)c2ccc(Cl)cc2Cl)on1` [III-265, N-[(3-propyl-5-isoxazolyl)methyl]-2,4-dichlorobenzamide], the “Evaluation (effect for rice blast)” value in the experiment on Pyricularia oryzae is reported as 5 (0). Further, the “Evaluation (effect for cucumber anthracnose)” value in experiment [1] is listed as 4 (1˜5).
Take `O=C(NCc1cc(CBr)no1)c1ccc(Cl)cc1Cl` [III-275, N-[(3-bromomethyl-5-isoxazolyl)methyl]-2,4-dichlorobenzamide]: the “Evaluation (effect for rice blast)” value in the experiment on Pyricularia oryzae is listed as 2 (11˜20). The “Evaluation (effect for cucumber anthracnose)” value in experiment [1] is 2 (11˜20).
With `O=C(NCc1cc(Cc2ccccc2)no1)c1ccccc1` [IV-1, N-[(3-benzyl-5-isoxazolyl)methyl]benzamide], the “Evaluation (effect for rice blast)” value in the experiment on Pyricularia oryzae is 5 (0). In experiment [1], the “Evaluation (effect for cucumber anthracnose)” value is given as 5 (0).
As for `COc1ccc(C(=O)NCc2cc(Cc3ccccc3)no2)cc1` [IV-2, N-[(3-benzyl-5-isoxazolyl)methyl]-4-methoxybenzamide], the “Evaluation (effect for rice blast)” value in the experiment on Pyricularia oryzae is given as 5 (0). Moreover, in experiment [1], the “Evaluation (effect for cucumber anthracnose)” value was 5 (0).
`Cc1ccc(C(=O)NCc2cc(Cc3ccccc3)no2)cc1` [IV-3, N-[(3-benzyl-5-isoxazolyl)methyl]-4-methylbenzamide]: in the experiment with Pyricularia oryzae, the “Evaluation (effect for rice blast)” value is given as 5 (0). In addition, the “Evaluation (effect for cucumber anthracnose)” value in experiment [1] is listed as 5 (0).
Take `O=C(NCc1cc(Cc2ccccc2)no1)C1CCCCC1` [IV-4, (3-benzyl-5-isoxazolyl)methylaminocarbonylcyclohexane]: the “Evaluation (effect for rice blast)” value with Pyricularia oryzae is recorded as 4 (1˜5). Besides, the “Evaluation (effect for cucumber anthracnose)” value in experiment [1] is given as 4 (1˜5).
With `COc1ccc(Cc2cc(CNC(=O)c3ccc(OC)cc3)on2)cc1` [IV-9, N-{[3-(4-methoxybenzyl)-5-isoxazolyl]methyl}-4-methoxybenzamide], in the experiment with Pyricularia oryzae, the “Evaluation (effect for rice blast)” value is reported as 5 (0). Further, the “Evaluation (effect for cucumber anthracnose)” value in experiment [1] is recorded as 5 (0).
For `Cc1ccc(Cc2cc(CNC(=O)c3ccc(C)cc3)on2)cc1` [IV-10, N-{[3-(4-methylbenzyl)-5-isoxazolyl]methyl}-4-methylbenzamide], the “Evaluation (effect for rice blast)” value with Pyricularia oryzae is listed as 5 (0). For the same compound, the “Evaluation (effect for cucumber anthracnose)” value in experiment [1] is on record as 5 (0).
For the compound `Cc1ccc(C(=O)NCc2cc(Cc3cccc(C)c3)no2)cc1` [IV-11, N-{[3-(3-methylbenzyl)-5-isoxazolyl]methyl}-4-methylbenzamide], the “Evaluation (effect for rice blast)” value with Pyricularia oryzae is 5 (0). Moreover, the “Evaluation (effect for cucumber anthracnose)” value in experiment [1] is reported as 5 (0).
As to `Cc1ccc(C(=O)NCc2cc(Cc3ccccc3C)no2)cc1` [IV-12, N-{[3-(2-methylbenzyl)-5-isoxazolyl]methyl}-4-methyl benzamide], in the experiment with Pyricularia oryzae, the “Evaluation (effect for rice blast)” value is listed as 5 (0). The “Evaluation (effect for cucumber anthracnose)” value in experiment [1] is 5 (0).

Source of the values: patent US20050171358A1 (priority 2002, published 2005).
